Series [1] can be described thus: logD(7.4) determination (n-octanol / phosphate buffer distribution). In kind it is physicochemical. Conditions: n-octanol / 0.05 M phosphate buffer pH 7.4; mean ± SD. The method, then:
Since high lipophilicity of peptidic radiotracers can lead to a high plasma protein binding, resulting in unspecific organ and high liver uptakes, thus negatively impact tumor visualization, the lipophilicity of the HBPLs was determined to get an approximate estimation of the in vivo biodistribution behavior of the radioligands. Therefore, the logD(7.4) values of the SiFAlin-modified HBPLs [^18F]1–[^18F]6 were determined via their distribution coefficient between n-octanol and phosphate buffer at pH 7.4.
The radiotracer solutions were first diluted with 0.9% NaCl solution to give a final EtOH concentration of <10%. A total of 5 MBq of the respective radiotracer in solution was added to 1.6 mL of a mixture of n-octanol and 0.05 M phosphate buffer (pH = 7.4) (v/v, 1/1), and the solution was vigorously shaken for 5 min. Subsequently, the phases were separated by centrifugation at 13.4 rpm for 2 min, and 100 μL of organic and aqueous phases were collected. The activity of each sample was measured using a gamma counter. The lipophilicity of each compound was determined in triplicate in three independent experiments.

Series [2] is described as follows: Stability of radiotracers in human serum (radio-HPLC). Type of series: in vitro ADME. Conditions: 37 °C, 120 min, mean ± SD, read-out: Stability: intact radiotracer after 120 min of incubation in human serum. The method, then:
In addition to the investigation of the radiotracers’ lipophilicity, their stability in human serum was evaluated in order to determine possible stability issues of the newly developed agents. For this purpose, the respective ^18F-labeled HBPLs were incubated in human serum at 37 °C for 120 min. The results of these experiments are summarized in Table 1, and the corresponding radio-HPLC chromatograms for [^18F]2 as representative examples for all compounds studied are depicted in Figure 3A (see Supplementary Materials, Figure S91 for the results obtained for the other radioligands). In Figure 3B, the portions of intact radiotracer over the course of the stability experiments are depicted.
The radiotracer solutions were first diluted with 0.9% NaCl solution to give a final EtOH concentration of <10%. Then, 6 × 25 μL radiotracer solution was added to 6 × 100 μL human serum and incubated at 37°C for 120 min. At defined time points (5, 15, 30, 60, 90 and 120 min), 125 μL EtOH was added to one of the mixtures and the precipitation of serum proteins was supported by ice-cooling for 2 min. After centrifugation at 13.4 rpm for 2 min, the supernatant was analyzed by analytical radio-HPLC (0–100% MeCN + 0.1% TFA in 5 min). The experiment was performed for each compound trice by three independent experiments.

Series [3] in a line: Ex vivo biodistribution: uptake in U87MG tumors and tumor-to-organ ratios. Also noted: species or system nude mice (Balb/cAnNRj-Foxn1nu/nu). Conditions: male, Balb/cAnNRj-Foxn1nu/nu (nude), mouse, iv, total radioactivity; for tissue uptake: U87MG tumor (integrin αvβ3-positive); for tissue uptake / tissue uptake at 1.5 h: ex vivo after PET/CT scan, i.v., n = 3; for tissue to tissue ratio: ex vivo biodistribution, mean (n = 3) ± SD; for tissue uptake at 1.5 h: U87MG tumor. The method, then:
(§1) For the evaluation of the in vivo pharmacokinetics, the two most promising HBPLs—[^18F]2 with the highest affinity to both target receptors and [^18F]4 with the highest hydrophilicity and still reasonable binding affinities—were selected. For PET/CT imaging, 6-week-old male nude mice (Balb/cAnNRj-Foxn1^nu/nu) were subcutaneously injected with 5 × 10^5 B16F10 cells into the right flank and 2.0–2.5 × 10^6 U87MG cells into the left flank to generate the respective receptor-positive tumors. When the tumors reached a sufficient size for imaging, each mouse was administered 4.15 ± 2.28 MBq of [^18F]2 or 3.95 ± 2.06 MBq of [^18F]4 via the lateral tail vein under isoflurane anesthesia. To determine the receptor specificity of both peptide parts of the labeled HBPLs and their relative contribution to overall tumor uptake, blocking experiments were also performed. […] After i.v. injection of the tracers, a dynamic PET scan, followed by a CT scan, was performed. The resulting PET/CT images and time–activity curves (TACs) are depicted in Figure 6, Figure 7 and Figure 8. After completion of the diagnostic scans, the mice were sacrificed, their organs (blood, spleen, liver, kidney, pancreas, lung, heart, brain, bone, muscle, tail, tumors, stomach, colon and small intestine) were collected and measured in a γ-counter for ex vivo biodistribution (see Supplementary Materials Table S1 for detailed results).
(§2) Each male nude mouse (six weeks old) was injected subcutaneously with 5 × 10^5 B16F10 cells into the right flank and 2.0–2.5 × 10^6 U87MG cells into the left flank. The health status and tumor growth of the mice were monitored regularly until the animals could be examined after 15–21 days, depending on the tumor size. For the in vivo experiments, the ^18F-radiolabeled compound was diluted in 0.9% saline to give a final EtOH concentration of <10%. Each mouse was injected with 4.15 ± 2.28 MBq of [^18F]2 or 3.95 ± 2.06 MBq of [^18F]4 via the lateral tail vein under isoflurane anesthesia. […] Each ^18F-labeled compound was studied with or without blocking in at least three mice. Mice were measured under isoflurane anesthesia in a small PET/SPECT/CT animal imaging system. First, a dynamic PET scan was performed over 90 min and the scan was framed in 29 timeframes (10 × 1 min, 10 × 2 min, 6 × 5 min, 3 × 10 min). Images were reconstructed using 12 iterations, a maximum likelihood expectation maximization (MLEM) algorithm including corrections for scattered radiation and decay and a voxel size of 0.5 mm. All PET scans were immediately followed by CT acquisition at a voltage of 45 kV and a current of 400 μA. The images were reconstructed using the filtered back projection (FBP) algorithm with a voxel size of 250 μm. The analysis of the data, including the generation of TACs of the kidneys, liver and tumors and the MIPs, was performed via PMOD (v3.8). For ex vivo biodistribution, the mice were sacrificed directly after the PET/CT scan. Organs (blood, spleen, liver, kidneys, pancreas, lungs, heart, brain, bone, muscle, tail, tumors, stomach, colon and small intestine) were collected, weighed and their radioactivity measured in a γ-counter. The percentage injected dose per gram (% ID/g) of each tissue was calculated from the determined values, organ weights, reference values and injected activity.

In series [4] the test system is integrin αvβ3-positive U87MG tumors. Described as above. The arrangement: species or system nude mice (Balb/cAnNRj-Foxn1nu/nu). Conditions: c(RGDyK) blocking (200 μg coinjected); ex vivo after PET/CT scan; i.v.; n = 3. The method, then:
as §1, §2

The mark [5] stands for this setting: NDP blocking (20 μg coinjected).
The mark [6] stands for this setting: c(RGDyK) blocking (200 μg coinjected).
[7] abbreviates: double blocking (NDP + c(RGDyK)).
[8] abbreviates: U87MG tumor / blood, without blocking, read-out: tumor/blood ratio, U87MG.
Where [9] appears, read: U87MG tumor / kidneys, without blocking, read-out: tumor/kidneys ratio, U87MG.
[10] abbreviates: U87MG tumor / liver, without blocking, read-out: tumor/liver ratio, U87MG.
[11] abbreviates: U87MG tumor / muscle, without blocking, read-out: tumor/muscle ratio, U87MG.

Where two headings read alike, the source gives them in different places.

`CCCC[C@H](NC(=O)CNC(=O)CNC(=O)CCOCCOCCOCCOCCC(=O)NCCCN(CCCNC(=O)CCOCCOCCOCCOCCC(=O)NCCCC[C@@H]1NC(=O)[C@@H](Cc2ccccc2)NC(=O)[C@H](CC(=O)O)NC(=O)CNC(=O)[C@H](CCCNC(=N)N)NC1=O)CC(=O)N[C@@H](CCCCNC(=O)CCC[N+](C)(C)Cc1ccc([Si](F)(C(C)(C)C)C(C)(C)C)cc1)C(N)=O)C(=O)N[C@H]1CC(=O)NCCCC[C@@H](C(N)=O)NC(=O)[C@H](Cc2c[nH]c3ccccc23)NC(=O)[C@H](CCCNC(=N)N)NC(=O)[C@@H](Cc2ccccc2)NC(=O)[C@H](Cc2c[nH]cn2)NC1=O` [[^18F]2]: the logD – broadly, the decadic logarithm of the distribution of all forms, ionised or not, between an organic phase and buffer at a given pH – in series [1] was -1.19 ± 0.05. In series [2], the remaining at 2 h is 85.4 ± 2.8%. For the same molecule, the tissue uptake (as a rule, the percentage of the injected dose found per gram of tissue) in series [3] (setting [5]) was found to be 3.19 ± 0.33 %ID/g; in series [3] (setting [6]), 1.48 ± 0.12 %ID/g; in series [3] (setting [7]) it was 1 ± 0.11 %ID/g; in series [3] (without blocking) it was 2.33 ± 0.46 %ID/g. Moreover, the tissue to tissue ratio is 2.4 ± 0.67 in series [3] (setting [8]), 0.18 ± 0.02 in series [3] (setting [9]), 0.14 ± 0.03 in series [3] (setting [10]) and 0.79 ± 0.66 in series [3] (setting [11]). The tissue uptake at 1.5 h in series [3] (without blocking) amounted to 2.33 ± 0.46 %ID/g. For the same molecule, the “ID/g, U87MG tumor” value in series [4] stood at 1.48 ± 0.12 % ID/g.

Regarding `CCCC[C@H](NC(=O)CNC(=O)CNC(=O)CCOCCOCCOCCOCCOCCOCCOCCOCCOCCC(=O)NCCCN(CCCNC(=O)CCOCCOCCOCCOCCOCCOCCOCCOCCOCCC(=O)NCCCC[C@@H]1NC(=O)[C@@H](Cc2ccccc2)NC(=O)[C@H](CC(=O)O)NC(=O)CNC(=O)[C@H](CCCNC(=N)N)NC1=O)CC(=O)N[C@@H](CCCCNC(=O)CCC[N+](C)(C)Cc1ccc([Si](F)(C(C)(C)C)C(C)(C)C)cc1)C(N)=O)C(=O)N[C@H]1CC(=O)NCCCC[C@@H](C(N)=O)NC(=O)[C@H](Cc2c[nH]c3ccccc23)NC(=O)[C@H](CCCNC(=N)N)NC(=O)[C@@H](Cc2ccccc2)NC(=O)[C@H](Cc2c[nH]cn2)NC1=O` [[^18F]4], the pH-dependent lipophilicity (logD) in series [1] was -1.39 ± 0.03. Besides, the remaining at 2 h in series [2] was found to be 83.6 ± 0.8%. Besides, the tissue uptake in series [3] (setting [5]) was found to be 2.53 ± 0.15 %ID/g; in series [3] (setting [6]), 2.67 ± 0.66 %ID/g; in series [3] (setting [7]) it was 0.9 ± 0.05 %ID/g; in series [3] (without blocking), 3.92 ± 1.31 %ID/g. The tissue to tissue ratio is 5.08 ± 0.75 in series [3] (setting [8]), 0.4 ± 0.07 in series [3] (setting [9]), 0.39 ± 0.14 in series [3] (setting [10]) and 45.7 ± 8.62 in series [3] (setting [11]). The tissue uptake at 1.5 h in series [3] (without blocking) is 3.92 ± 1.31 %ID/g. Moreover, the “ID/g, U87MG tumor” value in series [4] is reported as 2.67 ± 0.66 % ID/g.

Values taken from paper PMC8228600, “Design, Synthesis, In Vitro and In Vivo Evaluation of Heterobivalent SiFAlin-Modified Peptidic Radioligands Targeting Both Integrin αvβ3 and the MC1 Receptor—Suitable for the Specific Visualization of Melanomas?” (Pharmaceuticals, 2021).
